Results published in ChEMBL document CHEMBL3784999, “Investigation of 4-amino-5-alkynylpyrimidine-2(1H)-ones as anti-mycobacterial agents” (Bioorg Med Chem, 2016).
In brackets after ≈: the same amount, converted by molar mass.

System: Mycobacterium tuberculosis
Test: Antimycobacterial activity against Mycobacterium bovis BCG assessed as inhibition of mycobacterial replication after 6 days by microplate Alamar blue assay
Format: functional
Details: variant bovis BCG, 144 h

SMILES	MIC50	MIC90
CCCCCCCCC#Cc1c[nH]c(=O)nc1N	50 µg/mL (≈ 202 µM)	
CO[C@H]1/C=C/O[C@@]2(C)Oc3c(C)c(O)c4c(O)c(c(/C=N/N5CCN(C)CC5)c(O)c4c3C2=O)NC(=O)/C(C)=C\C=C\[C@H](C)[C@H](O)[C@@H](C)[C@@H](O)[C@@H](C)[C@H](OC(C)=O)[C@@H]1C [RIFAMPIN]		1 µg/mL (≈ 1.22 µM)
Nc1nc(=O)[nH]cc1C#Cc1ccccc1	25 µg/mL (≈ 118 µM)	
CCCCCC#Cc1c[nH]c(=O)nc1N	12.5 µg/mL (≈ 60.9 µM)	
